Data taken from US6358885B1, “Substituted phenylheterocyclic herbicides” (Mississippi State University, priority 1992, dated 2002).

Legend:
Assay in all cases: Test G preemergence/postemergence greenhouse plant response rating 0 to 100
[1] = system: yellow nutsedge; type: in vivo, Cyperus esculentus; conditions: Rate 125 g/ha, 0 to 100 scale
Description: (§1) Seeds, rhizomes, or plant parts of alfalfa (Medicago ativa), annual bluegrass (Poa annua), bermudagrass (Cynodon dactylon), broadleaf signalgrass (Brachiaria plantaginea), common purslane (Portulaca oleracea), common ragweed (Ambrosia elatior), […] (Paspalum dilatatum), goosegrass (Eleusine indica), guineagrass (Panicum maximum), […] exaltata), johnsongrass (Sorghum halepense), large crabgrass (Digitaria sanguinalis), peanut (Arachis hypoagaea), pitted morningglory (Ipomoea lacunosa), purple nutsedge (Cyperus rotundus), sandbur (Cenchrus echinatus), smooth crabgrass (Digitaria ischaemum) and yellow nutsedge (Cyperus esculentus) were planted into greenhouse pots containing greenhouse planting medium. Each pot contained only one plant species. The test compound was dissolved in a non-phytotoxic solvent and applied preemergence and/or postemergence to the plants. Preemergence applications were made within one day of planting the seeds or plant parts. Postemergence applications were applied when the plants were in the two to four leaf stage (three to twenty cm). Test chemicals were dissolved in a non-phytotoxic solvent and applied preemergence and postemergence to the plants. Untreated control plants and treated plants were placed in the greenhouse and visually evaluated for injury at 13 to 21 days after herbicide application. […] A dash (-) response indicates no test result.

[2] = system: pitted morningglory; type: in vivo, Ipomoea lacunosa; conditions: 0 to 100 scale
Description: as §1

[3] = system: bermudagrass; type: in vivo, Cynodon dactylon; conditions: 0 to 100 scale
Description: as §1

[4] = system: broadleaf signalgrass; type: in vivo, Brachiaria plantaginea; conditions: 0 to 100 scale
Description: as §1

[5] = system: peanut; type: in vivo, Arachis hypoagaea; conditions: 0 to 100 scale
Description: as §1

[6] = system: guineagrass; type: in vivo, Panicum maximum; conditions: 0 to 100 scale
Description: as §1

[7] = system: common purslane; type: in vivo, Portulaca oleracea; conditions: 0 to 100 scale
Description: as §1

[8] = system: smooth crabgrass; type: in vivo, Digitaria ischaemum; conditions: 0 to 100 scale
Description: as §1

[9] = system: purple nutsedge; type: in vivo, Cyperus rotundus; conditions: Rate 125 g/ha, 0 to 100 scale
Description: as §1

[10] = system: annual bluegrass; type: in vivo, Poa annua; conditions: 0 to 100 scale
Description: as §1

[11] = system: alfalfa; type: in vivo, Medicago ativa; conditions: 0 to 100 scale
Description: as §1

[12] = system: large crabgrass; type: in vivo, Digitaria sanguinalis; conditions: 0 to 100 scale
Description: as §1

[13] = system: johnsongrass; type: in vivo, Sorghum halepense; conditions: 0 to 100 scale
Description: as §1

[14] = system: common ragweed; type: in vivo, Ambrosia elatior; conditions: 0 to 100 scale
Description: as §1

[15] = system: dallisgrass; type: in vivo, Paspalum dilatatum; conditions: 0 to 100 scale
Description: as §1

[16] = system: goosegrass; type: in vivo, Eleusine indica; conditions: 0 to 100 scale
Description: as §1

[17] = system: itchgrass; type: in vivo, Rottboellia exaltata; conditions: 0 to 100 scale
Description: as §1

## CCCOc1cc(-c2nn3c(c2Cl)CCCC3)c(F)cc1Cl [Compound 23]
[1]; POSTEMERGENCE
  Plant response rating, Yellow Nutsedge: 0
[1]; PREEMERGENCE
  Plant response rating, Yellow Nutsedge: 0
[2]; POSTEMERGENCE, Rate 125 g/ha
  Plant response rating, Pit Morninglory: 0
[2]; POSTEMERGENCE, Rate 250 g/ha
  Plant response rating, Pit Morninglory: 0
[2]; PREEMERGENCE, Rate 125 g/ha
  Plant response rating, Pit Morninglory: 0
[2]; PREEMERGENCE, Rate 250 g/ha
  Plant response rating, Pit Morninglory: 0
[3]; POSTEMERGENCE, Rate 125 g/ha
  Plant response rating, Bermudagrass: 0
[3]; POSTEMERGENCE, Rate 250 g/ha
  Plant response rating, Bermudagrass: 0
[3]; PREEMERGENCE, Rate 125 g/ha
  Plant response rating, Bermudagrass: 0
[3]; PREEMERGENCE, Rate 250 g/ha
  Plant response rating, Bermudagrass: 50
[4]; POSTEMERGENCE, Rate 125 g/ha
  Plant response rating, Brdlf Sgnlgrass: 0
[4]; POSTEMERGENCE, Rate 250 g/ha
  Plant response rating, Brdlf Sgnlgrass: 0
[4]; PREEMERGENCE, Rate 125 g/ha
  Plant response rating, Brdlf Sgnlgrass: 0
[4]; PREEMERGENCE, Rate 250 g/ha
  Plant response rating, Brdlf Sgnlgrass: 0
[5]; POSTEMERGENCE, Rate 125 g/ha
  Plant response rating, Peanuts: 0
[5]; POSTEMERGENCE, Rate 250 g/ha
  Plant response rating, Peanuts: 0
[5]; PREEMERGENCE, Rate 125 g/ha
  Plant response rating, Peanuts: 0
[5]; PREEMERGENCE, Rate 250 g/ha
  Plant response rating, Peanuts: 0
[6]; POSTEMERGENCE, Rate 125 g/ha
  Plant response rating, Guineagrass: 0
[6]; POSTEMERGENCE, Rate 250 g/ha
  Plant response rating, Guineagrass: 0
[6]; PREEMERGENCE, Rate 125 g/ha
  Plant response rating, Guineagrass: 0
[6]; PREEMERGENCE, Rate 250 g/ha
  Plant response rating, Guineagrass: 0
[7]; POSTEMERGENCE, Rate 125 g/ha
  Plant response rating, Cmn Purslane: 70
[7]; POSTEMERGENCE, Rate 250 g/ha
  Plant response rating, Cmn Purslane: 50
[7]; PREEMERGENCE, Rate 125 g/ha
  Plant response rating, Cmn Purslane: 0
[7]; PREEMERGENCE, Rate 250 g/ha
  Plant response rating, Cmn Purslane: 100
[8]; POSTEMERGENCE, Rate 125 g/ha
  Plant response rating, Smooth Crabgras: 0
[8]; POSTEMERGENCE, Rate 250 g/ha
  Plant response rating, Smooth Crabgras: 0
[8]; PREEMERGENCE, Rate 125 g/ha
  Plant response rating, Smooth Crabgras: 0
[8]; PREEMERGENCE, Rate 250 g/ha
  Plant response rating, Smooth Crabgras: 20
[9]; POSTEMERGENCE
  Plant response rating, Purple Nutsedge: 0
[9]; PREEMERGENCE
  Plant response rating, Purple Nutsedge: 0
[10]; POSTEMERGENCE, Rate 125 g/ha
  Plant response rating, Ann Bluegrass: 0
[10]; POSTEMERGENCE, Rate 250 g/ha
  Plant response rating, Ann Bluegrass: 0
[10]; PREEMERGENCE, Rate 125 g/ha
  Plant response rating, Ann Bluegrass: 0
[10]; PREEMERGENCE, Rate 250 g/ha
  Plant response rating, Ann Bluegrass: 0
[11]; POSTEMERGENCE, Rate 125 g/ha
  Plant response rating, Alfalfa Var.: 0
[11]; POSTEMERGENCE, Rate 250 g/ha
  Plant response rating, Alfalfa Var.: 0
[11]; PREEMERGENCE, Rate 125 g/ha
  Plant response rating, Alfalfa Var.: 0
[11]; PREEMERGENCE, Rate 250 g/ha
  Plant response rating, Alfalfa Var.: 0
[12]; POSTEMERGENCE, Rate 125 g/ha
  Plant response rating, Large Crabgrass: 0
[12]; POSTEMERGENCE, Rate 250 g/ha
  Plant response rating, Large Crabgrass: 0
[12]; PREEMERGENCE, Rate 125 g/ha
  Plant response rating, Large Crabgrass: 0
[12]; PREEMERGENCE, Rate 250 g/ha
  Plant response rating, Large Crabgrass: 70
[13]; POSTEMERGENCE, Rate 125 g/ha
  Plant response rating, Johnsongrass: 0
[13]; POSTEMERGENCE, Rate 250 g/ha
  Plant response rating, Johnsongrass: 0
[13]; PREEMERGENCE, Rate 125 g/ha
  Plant response rating, Johnsongrass: 0
[13]; PREEMERGENCE, Rate 250 g/ha
  Plant response rating, Johnsongrass: 0
[14]; POSTEMERGENCE, Rate 125 g/ha
  Plant response rating, Cmn Ragweed: 60
[14]; POSTEMERGENCE, Rate 250 g/ha
  Plant response rating, Cmn Ragweed: 20
[14]; PREEMERGENCE, Rate 125 g/ha
  Plant response rating, Cmn Ragweed: 0
[14]; PREEMERGENCE, Rate 250 g/ha
  Plant response rating, Cmn Ragweed: 0
[15]; POSTEMERGENCE, Rate 125 g/ha
  Plant response rating, Dallisgrass: 0
[15]; POSTEMERGENCE, Rate 250 g/ha
  Plant response rating, Dallisgrass: 0
[15]; PREEMERGENCE, Rate 125 g/ha
  Plant response rating, Dallisgrass: 0
[15]; PREEMERGENCE, Rate 250 g/ha
  Plant response rating, Dallisgrass: 20
[16]; POSTEMERGENCE, Rate 125 g/ha
  Plant response rating, Goosegrass: 0
[16]; POSTEMERGENCE, Rate 250 g/ha
  Plant response rating, Goosegrass: 0
[16]; PREEMERGENCE, Rate 125 g/ha
  Plant response rating, Goosegrass: 90
[16]; PREEMERGENCE, Rate 250 g/ha
  Plant response rating, Goosegrass: 40
[17]; POSTEMERGENCE, Rate 125 g/ha
  Plant response rating, Itchgrass: 0
[17]; POSTEMERGENCE, Rate 250 g/ha
  Plant response rating, Itchgrass: 0
[17]; PREEMERGENCE, Rate 125 g/ha
  Plant response rating, Itchgrass: 0
[17]; PREEMERGENCE, Rate 250 g/ha
  Plant response rating, Itchgrass: 0
